Measured values from patent US9409901B2, “Compositions and methods for treating or preventing diseases or disorders associated with misregulated EIF4E” (Bantam Pharmaceutical, LLC, priority 2012, dated 2016).
pEC50, pIC50: −log10 of the molar value. Read-outs that look alike come from different tables or passages of the source.

How the values were obtained:
AU565 = assay: SBH cell AU565; format: cell-based; conditions: AU565 cells
[1] = Compound solubility in DMSO; format: physicochemical
[2] = tested on: AU565 (breast cancer ER−/PR−, her2−nue+); assay: Cell proliferation assay, AU565; format: cell-based; conditions: for EC50: AU-565, 91 hours, read-out: ED50 (μM), anti-proliferative activity against AU-565; for pEC50: AU-565 cells, read-out: AU-565 EC50
Experimental: Cells: AU565 (breast cancer ER^−/PR^−, her2^−nue^+) • 1. Cells were resuspended in media containing 10% FBS and 2× gentamicin. Resuspended cells were transferred to an assay plate (100 μL aliquots; 5,200 cells/well). • 2. test compound(s) were serially diluted in assay media. Aliquots of 100 μLof the test compound solution was added to the resuspended cells, creating a total volume of 200 μL. • 3. Plates were incubated at 37 C for 91 hours. • 4. 20 μL of Promega Substrate CellTiter 96 Aqueous One Solution Reagent was added to each well. • 5. Plates were incubated at 37 C and read at 490 nm.

HeLa Cells = HeLa Cells FQ IC50; format: cell-based
Experimental: Exposed tryptophan side chains are measured in a spectrometer. Tryptophan, when excited at 280 nm, emits light at 350 nm. The degree to which tryptophan emissions are quenched is a measure of binding of a test compound to eIF4E, as tryptophan side chains become “buried” upon compound binding.
HeLa cells were transfected with a bicistronic dual luciferase construct (2×EMCV Luc Plasmid-firefly and EMCV IRES dependent Renilla luciferase). One reporter construct was CAP-dependent, and the other was not. The cells were treated with DMSO in the presence or absence of various compounds described herein for 10 hours (compounds shown are in 50 μM serial dilutions). Cells were evaluated for Luc activity according to the Promega Dual Glo manufacturer instructions.

polysomes = assay: Polysome profile; format: cell-based; conditions: sucrose gradient, FIG. 11
Experimental: Cells, plated in 140 mm culture dishes; in mid log phase of growth (4-5 plates per treatment. Test compounds as 40 mM master solutions in DMSO Lysis buffer: 15 mM Tris pH 7.4, 15 mM MgCl2, 150 mM NaCl, 1% TritonX-100, 100 μg/mL cycloheximide, 1 mg/mL Heparin. Polysome buffer: 15 mM Tris pH7.4, 15 mM MgCl2, 150 mM NaCl, 100 μg/mL cycloheximide. • 1. Cells were incubated with the desired concentrations of each compound for 2 hours. • 2. Cells were incubated with 100 μg/mL cycloheximide in media for 5 min at 37 C, after which the media was removed from the late, and the plate was put on ice. • 3. Cells were washed twice with 5 mL PBS+100 μg/mL CHX. • 4. Cells were harvested, resuspended in 375 μl of LSB with 1 mM DTT and 100 U/mL RNAsin. • 5. 125 μL of lysis buffer was added, and the cells were subjected to 10 strokes in a homgenizer. • 6. The lysed cells were spun to remove cellular debris, and the supernatant was transferred to fresh tubes. • 7. 15 μL of 5M NaCl and 50 μL of 10 mg/mL Heparin was added. A 20 μL aliquot was taken and stored. The remainder of the supernatant mixture was taken to a volume of 1 mL and the OD260/280 was read. • 8. Aliquots of the supernatant mixture were then applied to a 15-50% sucrose gradient and spun for 105 minutes. The sucrose gradient was then fractionated and the OD254 was measured. […]

[3] = tested on: CRL-2813 human melanoma xenografts; assay: CRL-2813 human melanoma xenografts, protein expression (immunostaining); format: in vivo, mice
Experimental: • 1. CRL-2813 cancer cells were grown to obtain ≈5×10^6 cells for each tumor. • 2. Cells were harvested and washed in PBS. • 3. Harvested and washed cells were resuspended in 50% Matrigel™/medium at a density of ≈5×10^6 cells in 100 μL. • 4. 100 μL of the cell suspension was injected subcutaneously • 5. Tumors were grown to ≈150 mm^3 (approx. 2 weeks). • 1. Mice were randomly distributed to treatment and control groups and observed daily. • 2. A test compound or vehicle alone was injected twice daily with at least 10 hrs time interval between doses • Note: Vehicle: corn oil. Drug solution: 35 mg/mL of compound first dissolved in ethanol, mixed with corn oil followed by ethanol evaporation. Dosage: each dose=125 μL vehicle or drug suspension i.p. • 3. Tumor volume was measured weekly. • 4. At the conclusion of experiment, mice were sacrificed, and tumors were removed and weighed. • 5. Remove tumor and weigh • 6. The removed tumors were fixed in formalin solution or flash frozen and processed for histology/immunocytochemistry, or pull-down.
4EGI-1 inhibits expression of oncogenic proteins in melanoma tumors. CRL-2813 human melanoma xenografts were immunostained with antibodies specific for cyclin D1, cyclin E, c-myc, Bcl-2, VEGF or PCNA (FIG. 13). The bar graph is the quantification of immunostaining data (FIG. 14).

eIF4E/eIF4G interaction = eIF4E/eIF4G interaction (Homo sapiens, UniProt P06730); assay: Fluorescence polarization (FP) assay of eIF4E/eIF4G interaction; format: binding
Experimental: The effect of the bound compound on the activity of eIF4e was further addressed using a Fluorescence Polarization (FP) assay. The FP assay was used to monitor the eIF4E/eIF4G interaction. The eIF4E/eIF4G complex was exposed to Structure 10, and the dissociation of eIF4G from eIF4E was measured using the FP assay.
18 amino acid FITC-labeled 4G peptide (Moerke, N. et al., Cell, 128:257-67, 2007).
Compounds as 12.5 mM solutions in DMSO
A master mixture of 20 nM peptide, 400 μM recombinant […] in NMR buffer was made. 240 μL of this master mix was transferred to a separate tube and 3.2 μL of DMSO was added. 30 μL aliquots of this mixture was then added to each of six wells of 384-well black plate. These are the maximum polarization wells. The minimum polarization wells were determined using peptide only at a concentration of 20 nM. The experimental wells were created by adding 3.2 μL of each 12.5 mM solution of a test compound to the master mixture. The compound mixtures were serially diluted to create a six point dose response curve (with six different concentrations of each test compound).
The triplicate averages of the readings were determined. […] The activity of compound at each concentration was determined by comparing the FP signal in the presence of compound to the control (no compound) value. The percent inhibition is =100−((FP compound/FP control)×100).

eIF4E = eIF4E (Homo sapiens, UniProt P06730); assay: Binding to eIF4E demonstrated by NMR; conditions: FIG. 7
[4] = fluorescence polarization, some cells give words

Sequence of eIF4E/eIF4G interaction (P06730 whole entry, species assumed): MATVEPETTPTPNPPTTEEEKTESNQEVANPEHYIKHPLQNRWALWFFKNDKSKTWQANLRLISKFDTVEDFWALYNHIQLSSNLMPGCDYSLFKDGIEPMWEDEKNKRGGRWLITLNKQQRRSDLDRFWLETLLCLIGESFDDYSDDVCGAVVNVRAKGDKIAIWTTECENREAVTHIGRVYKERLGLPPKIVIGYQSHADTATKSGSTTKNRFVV
Sequence of eIF4E (P06730 whole entry, species assumed): as above

## CCOC(=O)CN(C)C(=O)c1nn(-c2nc(-c3cccc(OC)c3)c(C(C)C)s2)c2ccc(C(F)(F)F)cc12 [Structure 48]
AU565
  pEC50: 4.74 to 4.92
[1]
  Compound Solubility DMSO: half/less

## O=C(O)/C(Cc1ccccc1[N+](=O)[O-])=N\Nc1nc(-c2ccc(Cl)c(Cl)c2)cs1 [Structure 4EGI-1Z, reference compound]
[2]
  EC50: 4.8 to 7.1 µM
[2]; AU-565, at 10 μM
  % Growth Inhibition/μM: 30/10%
HeLa Cells
  pIC50: 4.58

## COC(=O)CNC(=O)c1nn(-c2nc(-c3cccc(OC)c3)c(C(C)C)s2)c2ccc(C(F)(F)F)cc12 [Structure 45]
AU565
  SBH cell AU565 (μM): low
[1]
  Compound Solubility DMSO: half/less

## COC(=O)CN(C)C(=O)c1nn(-c2nc(-c3cccc(OC)c3)c(C(C)C)s2)c2ccc(C(F)(F)F)cc12 [Structure 46]
AU565
  pEC50: 4.55 to 4.74
[1]
  Compound Solubility DMSO: little/no

## O=C(O)/C(Cc1ccccc1[N+](=O)[O-])=N/Nc1nc(-c2ccc(Cl)c(Cl)c2)cs1 [Structure 4EGI-1, 4EGI-1]
polysomes
  polysome density: noticeable difference
[3]; cyclin D1, cyclin E, c-myc, Bcl-2, VEGF or PCNA immunostaining
  expression of oncogenic proteins in melanoma tumors: inhibits
[3]; xenograft model, FIG. 14
  housekeeping proteins (e.g., actin and tubulin): unaffected
  translation of mRNA for growth-promoting and oncogenic proteins: down-regulates

## CCOC(=O)CNC(=O)c1nn(-c2nc(-c3cccc(OC)c3)c(C(C)C)s2)c2ccc(C(F)(F)F)cc12 [Structure 47]
AU565
  SBH cell AU565 (μM): none
[1]
  Compound Solubility DMSO: complete

## COc1cccc(-c2nc(-n3nc(C(=O)O)c4cc(C(F)(F)F)ccc43)sc2C(C)C)c1 [Structure 2]
[2]
  EC50: 5.6 to 8.4 µM
  pEC50: 5.04
[2]; AU-565, at 40 μM
  % Growth Inhibition/μM: 79/40%

## COc1cccc(-c2nc(-n3nc(CC(=O)O)c4cc(Cl)ccc43)sc2C(C)C)c1 [Structure 14]
AU565
  pEC50: 4.51 to 4.68
[1]
  Compound Solubility DMSO: complete

## COc1cccc(-c2nc(-n3nc(CC(=O)NCC(=O)O)c4cc(Cl)ccc43)sc2C(C)C)c1 [Structure 15]
AU565
  pEC50: 4.39 to 4.55
eIF4E/eIF4G interaction; [4]
  FP EC50 (μM): some
[1]
  Compound Solubility DMSO: complete

## CCc1sc(-n2nc(C(=O)O)c3cc(C(F)(F)F)ccc32)nc1-c1cccc(OC)c1 [Structure 17]
[2]
  pEC50: 4.89 to 5.07

## COc1cccc(-c2nc(-n3nc(C(=O)c4nn[nH]n4)c4cc(C(F)(F)F)ccc43)sc2C(C)C)c1 [Structure 13]
AU565
  pEC50: 4.85 to 5.05
[1]
  Compound Solubility DMSO: complete

## COc1cccc(-c2nc(Cn3nc(C(=O)O)c4cc(C(F)(F)F)ccc43)sc2C(C)C)c1 [Structure 9]
eIF4E/eIF4G interaction; [4]
  pEC50: 4.44 to 4.62

## O=C(O)/C(Cc1ccccc1[N+](=O)[O-])=N/Nc1nc(-c2ccc(Cl)c(Cl)c2)cs1 [Structure 4EGI-1E, reference compound]
[2]
  EC50: 21 to 32 µM
[2]; AU-565, at 40 μM
  % Growth Inhibition/μM: 60/40%
HeLa Cells
  pIC50: 4.32

## COc1cccc(-c2nc(-n3nc(C(=O)O)c4cc(C#N)ccc43)sc2C(C)C)c1 [Structure 3]
[2]
  pEC50: 4.60 to 4.80
eIF4E/eIF4G interaction
  activity in fluorescence polarization assays: showed activity

## CCc1sc(-n2nc(C(=O)O)c3cc(C(F)(F)F)ccc32)nc1-c1cccc(OC)c1 [Structure 1]
[2]
  EC50: 8.5 to 12.8 µM
[2]; AU-565, at 40 μM
  % Growth Inhibition/μM: 70/40%

## COc1ccc(C[C@H](N)C(=O)N[C@H]2[C@@H](O)[C@H](n3cnc4c(N(C)C)ncnc43)O[C@@H]2CO)cc1 [puromycin]
polysomes
  polysome density: noticeable difference

## COc1cccc(-c2nc(-n3cc(C(=O)N4CCNCC4)c4cc(C(F)(F)F)ccc43)sc2C(C)C)c1 [Structure 10]
[2]; Homo sapiens, AU565
  EC50: 1.2 to 1.8 µM
[2]; Homo sapiens, AU565, AU-565, at 3.1 μM, read-out: % Growth Inhibition/μM
  inhibition at 3.1 µM: 85%
eIF4E
  Binding to eIF4E by NMR: demonstrated

## COc1cccc(-c2nc(-n3nc(CC(=O)N(C)CC(=O)O)c4cc(Cl)ccc43)sc2C(C)C)c1 [Structure 16]
AU565
  pEC50: 5.10 to 5.28
eIF4E/eIF4G interaction; [4]
  FP EC50 (μM): good
[1]
  Compound Solubility DMSO: complete
